Measured values from article PMC10671849, “Synthesis and Evaluation of Marine-Inspired Compounds Result in Hybrids with Antitrypanosomal and Antileishmanial Activities” (Marine Drugs, 2023).
In brackets after ≈: the same amount, converted by molar mass.

How the values were obtained:
Trichophyton rubrum FF5 = experiment: Antifungal broth microdilution (CLSI M38-A2), MIC/MLC; assay type: cell-based; conditions: for MIC: Trichophyton rubrum, FF5, broth microdilution, read-out: MIC T. rubrum; for MIC / MIC T. rubrum: 16 to 512 µg/mL, 5–7 days at 26 °C; for MIC T. rubrum: broth microdilution; for MLC T. rubrum: minimum lethal concentration, subculture on SDA after MIC reading
Description: (§1) All tested compounds (9a–9d, 10a–10c, 13, 14, and eugenol (1)) were prepared in DMSO (Sigma-Aldrich, St. Louis, MO, USA) at a concentration of 10 mg/mL. The reference drugs used (voriconazole (Sigma-Aldrich, St. Louis, MO, USA) for fungi and quality control; gentamicin (Sigma-Aldrich, St. Louis, MO, USA) for bacterial and quality control) were prepared at 6.4 mg/mL. The stock solutions of the compounds were stored at –20 °C until immediately before the assays and then were diluted in fresh culture medium, RPMI-1640 medium (Biochrom AG, Berlin, Germany) buffered with 3-(N-morpholino)propanesulfonic acid (MOPS—Sigma-Aldrich, St. Louis, MO, USA) for fungi and cation-adjusted Mueller–Hinton broth (MHBII—Becton Dickinson, France) for bacteria, henceforth referred to as RPMI and MHB, respectively.
(§2) Fungal strains, including reference strains and clinical isolates, were used for the study of the antifungal activity: a yeast reference strain from American Type Culture Collection (ATCC), Candida albicans ATCC 10231; filamentous fungi reference strain Aspergillus fumigatus ATCC 240305; and a clinical isolate of dermatophytes Trichophyton rubrum FF5. Candida krusei ATCC 6258 was used as a quality control. All fungal strains were stored in Sabouraud dextrose broth (SDB—Bio-Mèrieux, Marcy L’Etoile, France) with glycerol (20%) at −80 °C and were subcultured in Sabouraud dextrose agar (SDA—Bio-Mèrieux, Marcy L’Etoile, France) for 24–72 h (yeasts and A. fumigatus) or 5–7 days (T. rubrum) before each assay to obtain optimal growth and purity conditions. Two bacteria strains were used, one Gram positive and one Gram negative: Staphylococcus aureus ATCC 25923 and Escherichia coli ATCC 25922, respectively. The bacterial strains were stored in trypticase soy broth (TSB—Biolife, Milan, Italy) with glycerol (10%) at −80 °C and subcultured in Mueller–Hinton agar (MHA—Bio-Mèrieux, Marcy L’Etoile, France) for 24 h before each assay.
(§3) For the purpose of quantitatively measuring the antifungal activity in vitro, a broth microdilution method was used to determine the MICs using the CLSI reference protocols M27-A3 [27] for yeasts and M38-A2 [28] for filamentous fungi. In short, two-fold serial dilutions of each stock solution were prepared using RPMI medium (pH 7) to obtain a range of test concentrations from 16 to 512 μg/mL. The yeasts or spore suspensions were prepared from 24 to 72-h cultures (yeasts and Aspergillus) or from 5–7 days of cultures (dermatophyte) in saline solution (with a drop of Tween 20 for the filamentous fungi). The transmittance of the cell density of yeasts was adjusted to 0.5 McFarland standard, and for filamentous fungi, the spores were counted using a Neubauer camera. Dilutions were performed using RPMI to obtain cell final concentrations in the plate of 0.5–2.5 × 10^3 colony forming units (CFU)/mL for yeasts, 0.4–5 × 10^4 CFU/mL for Aspergillus, and 1–3 × 10^3 CFU/mL for dermatophytes. Plates with the prepared serial dilutions of the tested compounds were inoculated with the same volume of the fungal suspension, and sterility (wells with only culture medium), growth (wells with cell suspensions in culture medium), and DMSO controls (wells with cell suspensions in culture medium containing 1% DMSO) were included in each assay. […] For the tested compounds, MIC values were considered the minimum concentration that inhibited the yeast growth by 100% compared to the growth control. The reference drug, voriconazole, was tested against C. krusei ATCC 6258 as a quality control, and the results were within the limits of CLSI reference documents.
(§4) After MIC readings, 10 μL of suspension were collected from wells corresponding to the MIC and the highest concentration following the MIC and were deposited in SDA plates. The plates were incubated following the conditions previously mentioned for the MIC evaluation, and the MLC was determined as the lowest concentration at which no fungal growth is observed.

[1] = system: Aspergillus fumigatus ATCC 240305; experiment: as above; assay type: cell-based; conditions: for MIC: Aspergillus fumigatus, ATCC240305, broth microdilution, 16 to 512 µg/mL, 48 h at 36 °C
Description: as §1, §2, §3, §4

SMILES: C=CCc1cc(Cn2cc(C(=O)Nc3ccccc3C(N)=O)nn2)c(O)c(OC)c1 [9a, 1-(5-allyl-2-hydroxy-3-methoxybenzyl)-N-(2-carbamoylphenyl)-1H-1,2,3-triazole-4-carboxamide]
- MIC (Trichophyton rubrum FF5): 512 µg/mL (≈ 1260 µM)
- MIC T. rubrum (Trichophyton rubrum FF5): 256 to 512 µg/mL
- MLC T. rubrum (Trichophyton rubrum FF5): > 512 µg/mL
- MIC [1]: > 512 µg/mL

SMILES: C=CCc1cc(Cn2cc(C(=O)Nc3ccc(OC)cc3C(N)=O)nn2)c(O)c(OC)c1 [9b, 1-(5-allyl-2-hydroxy-3-methoxybenzyl)-N-(2-carbamoyl-4-methoxyphenyl)-1H-1,2,3-triazole-4-carboxamide]
- MIC (Trichophyton rubrum FF5): > 512 µg/mL
- MIC [1]: > 512 µg/mL

SMILES: C=CCc1cc(Cn2cc(C(=O)Nc3ccc(F)cc3C(N)=O)nn2)c(O)c(OC)c1 [9c, 1-(5-allyl-2-hydroxy-3-methoxybenzyl)-N-(2-carbamoyl-4-fluorophenyl)-1H-1,2,3-triazole-4-carboxamide]
- MIC (Trichophyton rubrum FF5): > 512 µg/mL
- MIC [1]: > 512 µg/mL

SMILES: C=CCc1cc(Cn2cc(C(=O)Nc3ccc(Cl)cc3C(N)=O)nn2)c(O)c(OC)c1 [9d, 1-(5-allyl-2-hydroxy-3-methoxybenzyl)-N-(2-carbamoyl-4-chlorophenyl)-1H-1,2,3-triazole-4-carboxamide]
- MIC (Trichophyton rubrum FF5): 512 µg/mL (≈ 1160 µM)
- MIC T. rubrum (Trichophyton rubrum FF5): 256 to 512 µg/mL
- MLC T. rubrum (Trichophyton rubrum FF5): > 512 µg/mL
- MIC [1]: > 512 µg/mL

SMILES: C=CCc1cc(Cn2cc(-c3nc4ccccc4c(=O)[nH]3)nn2)c(O)c(OC)c1 [10a, 2-(1-(5-allyl-2-hydroxy-3-methoxybenzyl)-1H-1,2,3-triazol-4-yl)quinazolin-4(3H)-one]
- MIC (Trichophyton rubrum FF5): 512 µg/mL (≈ 1310 µM)
- MIC T. rubrum (Trichophyton rubrum FF5): 256 to 512 µg/mL
- MLC T. rubrum (Trichophyton rubrum FF5): > 512 µg/mL
- MIC [1]: > 512 µg/mL

SMILES: C=CCc1cc(Cn2cc(-c3nc4ccc(OC)cc4c(=O)[nH]3)nn2)c(O)c(OC)c1 [10b, 2-(1-(5-allyl-2-hydroxy-3-methoxybenzyl)-1H-1,2,3-triazol-4-yl)-6-methoxyquinazolin-4(3H)-one]
- MIC (Trichophyton rubrum FF5): > 512 µg/mL
- MIC [1]: > 512 µg/mL

SMILES: C=CCc1cc(Cn2cc(-c3nc4ccc(F)cc4c(=O)[nH]3)nn2)c(O)c(OC)c1 [10c, 2-(1-(5-allyl-2-hydroxy-3-methoxybenzyl)-1H-1,2,3-triazol-4-yl)-6-fluoroquinazolin-4(3H)-one]
- MIC (Trichophyton rubrum FF5): 512 µg/mL (≈ 1260 µM)
- MIC T. rubrum (Trichophyton rubrum FF5): 256 to 512 µg/mL
- MLC T. rubrum (Trichophyton rubrum FF5): > 512 µg/mL
- MIC [1]: > 512 µg/mL

SMILES: C=CCc1ccc(O)c(OC)c1 [Eugenol, eugenol, reference compound]
- MIC (Trichophyton rubrum FF5): 256 µg/mL (≈ 1560 µM)
- MIC [1]: 512 µg/mL (≈ 3120 µM)
- MLC A. fumigatus ([1]; minimum lethal concentration, subculture on SDA after MIC reading): > 512 µg/mL

SMILES: C=CCc1ccc(OCc2cn(CC(=O)Nc3ccccc3C(=O)O)nn2)c(OC)c1 [compound 13, 2-(2-(4-((4-allyl-2-methoxyphenoxy)methyl)-1H-1,2,3-triazol-1-yl)acetamido) benzoic acid]
- MIC (Trichophyton rubrum FF5): > 512 µg/mL
- MIC [1]: > 512 µg/mL

SMILES: C=CCc1cc(Cn2cc(-c3nc4ccccc4c(=O)o3)nn2)c(O)c(OC)c1 [compound 14, 2-(1-(5-allyl-2-hydroxy-3-methoxybenzyl)-1H-1,2,3-triazol-4-yl)-4H-benzo[d][1,3]oxazin-4-one]
- MIC (Trichophyton rubrum FF5): 256 to 512 µg/mL (≈ 656 to 1310 µM)
- MIC T. rubrum (Trichophyton rubrum FF5): 256 to 512 µg/mL
- MLC T. rubrum (Trichophyton rubrum FF5): > 512 µg/mL
- MIC [1]: > 512 µg/mL
